The values that follow come from publication PMC12136037, “Type II kinase inhibitors that target Parkinson’s disease–associated LRRK2” (Science Advances, 2025).

Read-outs that look alike come from different tables or passages of the source.

Test in all cases: DSF 100 kinase selectivity screen;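 also: compound tested at 20 µM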
What all share (type): binding

Assay [1] addresses T1, ~100 representative kinases (Homo sapiens, UniProt O14936).
T1 construct: Recombinant protein kinase domains with a concentration of 2 μM
T1 sequence (O14936 1-926): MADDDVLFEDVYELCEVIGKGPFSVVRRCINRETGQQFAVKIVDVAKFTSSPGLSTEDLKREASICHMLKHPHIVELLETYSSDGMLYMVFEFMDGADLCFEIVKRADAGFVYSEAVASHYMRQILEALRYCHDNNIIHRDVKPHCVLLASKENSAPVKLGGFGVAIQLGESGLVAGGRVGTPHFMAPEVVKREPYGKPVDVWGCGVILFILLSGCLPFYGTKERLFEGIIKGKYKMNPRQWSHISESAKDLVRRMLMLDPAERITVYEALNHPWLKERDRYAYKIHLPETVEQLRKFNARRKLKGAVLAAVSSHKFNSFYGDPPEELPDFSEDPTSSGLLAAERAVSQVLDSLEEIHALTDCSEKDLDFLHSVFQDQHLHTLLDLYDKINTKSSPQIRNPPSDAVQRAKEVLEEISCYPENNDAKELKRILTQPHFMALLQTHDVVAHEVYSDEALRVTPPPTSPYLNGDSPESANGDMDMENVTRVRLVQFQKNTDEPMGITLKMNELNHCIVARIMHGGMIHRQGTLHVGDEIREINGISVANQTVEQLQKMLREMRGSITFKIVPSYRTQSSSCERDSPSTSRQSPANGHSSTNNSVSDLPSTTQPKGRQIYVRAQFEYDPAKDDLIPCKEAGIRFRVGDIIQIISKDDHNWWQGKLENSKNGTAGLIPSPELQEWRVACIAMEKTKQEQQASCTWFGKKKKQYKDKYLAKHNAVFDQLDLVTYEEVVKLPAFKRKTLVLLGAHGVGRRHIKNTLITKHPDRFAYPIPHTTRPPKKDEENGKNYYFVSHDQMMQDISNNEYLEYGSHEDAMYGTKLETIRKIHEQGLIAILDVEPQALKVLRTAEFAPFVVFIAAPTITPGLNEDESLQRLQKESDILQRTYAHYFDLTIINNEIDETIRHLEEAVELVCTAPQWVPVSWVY
Conditions: Protein CASK; average of three replicates. The procedure, abridged: (§1)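 Each kinase domain, at 2 μM, is mixed with 20 μM test compound and SYPRO Orange in Hepes (20 mM, pH 7.5) with 500 mM NaCl. Temperature is then raised at 3°C/min and fluorescence-monitored unfolding yields the melting temperature change, ΔTm in degrees Celsius.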

The target in assay [2] is T2, ~100 representative kinases (Homo sapiens, UniProt P21802).
T2 construct: Recombinant protein kinase domains with a concentration of 2 μM
T2 sequence (P21802 22-821): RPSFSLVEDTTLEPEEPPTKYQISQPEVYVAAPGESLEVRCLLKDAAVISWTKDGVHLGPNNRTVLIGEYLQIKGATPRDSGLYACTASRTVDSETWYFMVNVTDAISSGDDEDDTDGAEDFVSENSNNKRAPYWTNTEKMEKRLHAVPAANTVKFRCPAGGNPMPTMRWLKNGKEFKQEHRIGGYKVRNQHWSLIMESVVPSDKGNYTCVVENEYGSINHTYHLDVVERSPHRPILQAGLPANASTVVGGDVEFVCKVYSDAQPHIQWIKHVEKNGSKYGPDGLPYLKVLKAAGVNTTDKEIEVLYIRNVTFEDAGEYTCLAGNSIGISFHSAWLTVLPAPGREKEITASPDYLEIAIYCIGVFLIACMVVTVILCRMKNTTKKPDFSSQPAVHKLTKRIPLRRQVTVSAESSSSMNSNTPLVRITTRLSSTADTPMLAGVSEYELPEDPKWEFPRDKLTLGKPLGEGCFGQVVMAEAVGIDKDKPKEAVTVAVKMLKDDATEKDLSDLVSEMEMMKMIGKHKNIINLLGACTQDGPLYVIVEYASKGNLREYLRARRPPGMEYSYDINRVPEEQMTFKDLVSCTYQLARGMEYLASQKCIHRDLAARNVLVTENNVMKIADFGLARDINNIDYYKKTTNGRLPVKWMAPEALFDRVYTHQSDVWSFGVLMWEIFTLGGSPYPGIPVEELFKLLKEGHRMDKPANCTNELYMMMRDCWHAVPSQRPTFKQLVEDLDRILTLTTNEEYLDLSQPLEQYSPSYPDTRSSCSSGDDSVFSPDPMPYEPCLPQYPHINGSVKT
Conditions: protein FGFR2; average of three replicates. The procedure, abridged: as §1

In assay [3] the target is T3, ~100 representative kinases (Homo sapiens, UniProt P27448).
T3 construct: Recombinant protein kinase domains with a concentration of 2 μM
T3 sequence (P27448 whole entry, the tested form may be a part): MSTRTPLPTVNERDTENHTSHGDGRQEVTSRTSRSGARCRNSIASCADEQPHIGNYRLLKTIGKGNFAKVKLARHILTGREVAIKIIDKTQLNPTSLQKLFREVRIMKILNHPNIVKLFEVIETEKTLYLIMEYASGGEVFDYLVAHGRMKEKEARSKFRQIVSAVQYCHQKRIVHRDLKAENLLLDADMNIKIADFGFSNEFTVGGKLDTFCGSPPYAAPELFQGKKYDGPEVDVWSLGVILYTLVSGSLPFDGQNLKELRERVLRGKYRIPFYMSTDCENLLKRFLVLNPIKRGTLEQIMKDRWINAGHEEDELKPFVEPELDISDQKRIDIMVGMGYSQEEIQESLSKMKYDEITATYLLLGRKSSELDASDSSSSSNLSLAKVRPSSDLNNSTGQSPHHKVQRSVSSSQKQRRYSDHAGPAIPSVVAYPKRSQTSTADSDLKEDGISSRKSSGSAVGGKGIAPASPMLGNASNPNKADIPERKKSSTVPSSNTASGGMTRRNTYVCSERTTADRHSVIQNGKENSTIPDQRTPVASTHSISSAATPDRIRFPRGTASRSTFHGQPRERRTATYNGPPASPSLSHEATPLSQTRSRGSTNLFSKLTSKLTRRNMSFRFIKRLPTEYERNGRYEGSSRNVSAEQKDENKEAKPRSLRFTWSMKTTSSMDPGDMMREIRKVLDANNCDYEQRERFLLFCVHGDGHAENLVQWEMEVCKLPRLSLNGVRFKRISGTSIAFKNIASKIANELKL
The settings on record: protein MARK3; average of three replicates. In a few lines:
as §1

Assay [4] concerns the target T4, ~100 representative kinases (Homo sapiens, UniProt P68400).
T4 construct: Recombinant protein kinase domains with a concentration of 2 μM
The settings on record: Protein CK2A1; average of three replicates. The procedure, abridged:
as §1

In assay [5] the target is T5, ~100 representative kinases (Homo sapiens, UniProt Q15375).
T5 construct: Recombinant protein kinase domains with a concentration of 2 μM
T5 sequence (Q15375 28-998): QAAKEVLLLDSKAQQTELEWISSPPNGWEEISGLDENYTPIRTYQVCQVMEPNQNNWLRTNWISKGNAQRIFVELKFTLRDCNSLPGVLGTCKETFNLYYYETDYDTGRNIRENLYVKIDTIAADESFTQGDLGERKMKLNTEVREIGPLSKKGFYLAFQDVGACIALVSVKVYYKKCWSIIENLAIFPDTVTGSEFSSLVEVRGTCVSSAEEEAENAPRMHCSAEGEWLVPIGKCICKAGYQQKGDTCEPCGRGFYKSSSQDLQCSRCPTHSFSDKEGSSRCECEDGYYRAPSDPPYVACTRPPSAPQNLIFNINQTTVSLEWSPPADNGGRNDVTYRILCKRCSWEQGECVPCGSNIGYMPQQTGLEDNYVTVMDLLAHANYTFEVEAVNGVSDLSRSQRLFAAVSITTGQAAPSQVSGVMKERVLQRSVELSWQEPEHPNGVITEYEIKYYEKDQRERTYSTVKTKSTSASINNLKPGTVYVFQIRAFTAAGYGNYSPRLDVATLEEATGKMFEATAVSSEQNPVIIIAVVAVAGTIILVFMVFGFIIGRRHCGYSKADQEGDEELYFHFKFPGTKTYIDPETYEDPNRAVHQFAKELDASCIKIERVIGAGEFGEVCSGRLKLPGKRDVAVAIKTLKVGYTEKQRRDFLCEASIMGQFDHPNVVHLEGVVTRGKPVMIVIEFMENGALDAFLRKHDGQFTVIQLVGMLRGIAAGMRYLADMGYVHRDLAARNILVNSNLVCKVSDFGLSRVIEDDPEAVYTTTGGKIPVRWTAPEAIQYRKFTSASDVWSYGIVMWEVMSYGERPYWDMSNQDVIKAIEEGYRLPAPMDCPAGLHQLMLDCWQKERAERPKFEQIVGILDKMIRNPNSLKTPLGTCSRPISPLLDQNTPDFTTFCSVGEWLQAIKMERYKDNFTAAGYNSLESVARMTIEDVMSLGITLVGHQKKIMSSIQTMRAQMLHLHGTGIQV
Conditions: Protein EPHA7; average of three replicates. In a few lines:
as §1

Assay [6] has as its target T6, ~100 representative kinases (Homo sapiens, UniProt Q99683).
T6 construct: Recombinant protein kinase domains with a concentration of 2 μM
T6 sequence (Q99683 1-1374): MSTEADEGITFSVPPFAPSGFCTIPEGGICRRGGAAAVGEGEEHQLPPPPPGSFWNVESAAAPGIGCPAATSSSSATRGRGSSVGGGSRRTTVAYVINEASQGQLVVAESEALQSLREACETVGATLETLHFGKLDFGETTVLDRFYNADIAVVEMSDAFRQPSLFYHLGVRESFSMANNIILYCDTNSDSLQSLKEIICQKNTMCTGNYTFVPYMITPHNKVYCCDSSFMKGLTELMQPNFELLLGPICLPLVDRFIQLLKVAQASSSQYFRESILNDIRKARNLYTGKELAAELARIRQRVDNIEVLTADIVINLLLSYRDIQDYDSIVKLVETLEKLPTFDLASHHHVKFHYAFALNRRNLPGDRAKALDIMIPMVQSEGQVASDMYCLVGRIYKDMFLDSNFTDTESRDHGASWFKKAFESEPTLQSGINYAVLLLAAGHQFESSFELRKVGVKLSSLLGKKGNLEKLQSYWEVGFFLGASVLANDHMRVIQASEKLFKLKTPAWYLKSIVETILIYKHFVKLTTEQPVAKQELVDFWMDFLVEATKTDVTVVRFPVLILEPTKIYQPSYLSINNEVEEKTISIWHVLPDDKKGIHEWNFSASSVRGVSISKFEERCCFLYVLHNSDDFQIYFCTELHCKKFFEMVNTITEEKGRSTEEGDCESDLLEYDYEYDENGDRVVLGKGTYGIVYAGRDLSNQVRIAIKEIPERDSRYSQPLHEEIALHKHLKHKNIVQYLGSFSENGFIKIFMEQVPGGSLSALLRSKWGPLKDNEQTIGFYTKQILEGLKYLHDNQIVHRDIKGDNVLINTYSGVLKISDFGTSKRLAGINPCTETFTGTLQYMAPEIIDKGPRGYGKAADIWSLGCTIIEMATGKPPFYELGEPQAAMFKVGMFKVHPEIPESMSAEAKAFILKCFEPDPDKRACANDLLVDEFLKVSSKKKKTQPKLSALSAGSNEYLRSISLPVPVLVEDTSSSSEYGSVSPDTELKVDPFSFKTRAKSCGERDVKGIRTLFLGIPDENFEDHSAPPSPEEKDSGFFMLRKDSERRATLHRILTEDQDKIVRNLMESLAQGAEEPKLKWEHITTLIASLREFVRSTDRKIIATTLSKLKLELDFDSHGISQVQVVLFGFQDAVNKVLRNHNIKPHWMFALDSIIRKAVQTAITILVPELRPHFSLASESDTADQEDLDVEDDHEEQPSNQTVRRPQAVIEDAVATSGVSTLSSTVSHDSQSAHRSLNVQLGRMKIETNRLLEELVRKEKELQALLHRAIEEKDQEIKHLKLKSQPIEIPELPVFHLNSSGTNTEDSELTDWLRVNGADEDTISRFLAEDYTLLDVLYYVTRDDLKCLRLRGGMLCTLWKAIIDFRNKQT
The settings on record: protein MAP3K5; average of three replicates. In a few lines:
as §1

Assay [7] concerns the target T7, ~100 representative kinases (Homo sapiens, UniProt Q9H2G2).
T7 construct: Recombinant protein kinase domains with a concentration of 2 μM
The procedure, abridged: as §1

For assay [8], the target named is T8, ~100 representative kinases (Homo sapiens, UniProt Q9H2X6).
T8 construct: Recombinant protein kinase domains with a concentration of 2 μM
Conditions: protein HIPK2; average of three replicates. In a few lines: as §1

Where [9] appears, read: Protein SLK, DSF, average of three replicates.

T4 sequence (P68400 whole entry, the tested form may be a part): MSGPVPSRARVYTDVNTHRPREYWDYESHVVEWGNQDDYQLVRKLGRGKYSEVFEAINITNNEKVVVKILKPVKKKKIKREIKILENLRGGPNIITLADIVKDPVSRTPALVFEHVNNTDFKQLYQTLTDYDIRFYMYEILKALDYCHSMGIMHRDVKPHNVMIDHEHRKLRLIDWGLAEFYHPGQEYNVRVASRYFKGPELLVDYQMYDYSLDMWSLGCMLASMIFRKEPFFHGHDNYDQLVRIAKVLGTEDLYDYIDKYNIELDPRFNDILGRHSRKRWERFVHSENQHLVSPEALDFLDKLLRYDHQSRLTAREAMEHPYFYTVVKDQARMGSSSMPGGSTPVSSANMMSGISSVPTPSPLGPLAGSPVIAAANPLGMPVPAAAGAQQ
T7 sequence (Q9H2G2 whole entry, the tested form may be a part): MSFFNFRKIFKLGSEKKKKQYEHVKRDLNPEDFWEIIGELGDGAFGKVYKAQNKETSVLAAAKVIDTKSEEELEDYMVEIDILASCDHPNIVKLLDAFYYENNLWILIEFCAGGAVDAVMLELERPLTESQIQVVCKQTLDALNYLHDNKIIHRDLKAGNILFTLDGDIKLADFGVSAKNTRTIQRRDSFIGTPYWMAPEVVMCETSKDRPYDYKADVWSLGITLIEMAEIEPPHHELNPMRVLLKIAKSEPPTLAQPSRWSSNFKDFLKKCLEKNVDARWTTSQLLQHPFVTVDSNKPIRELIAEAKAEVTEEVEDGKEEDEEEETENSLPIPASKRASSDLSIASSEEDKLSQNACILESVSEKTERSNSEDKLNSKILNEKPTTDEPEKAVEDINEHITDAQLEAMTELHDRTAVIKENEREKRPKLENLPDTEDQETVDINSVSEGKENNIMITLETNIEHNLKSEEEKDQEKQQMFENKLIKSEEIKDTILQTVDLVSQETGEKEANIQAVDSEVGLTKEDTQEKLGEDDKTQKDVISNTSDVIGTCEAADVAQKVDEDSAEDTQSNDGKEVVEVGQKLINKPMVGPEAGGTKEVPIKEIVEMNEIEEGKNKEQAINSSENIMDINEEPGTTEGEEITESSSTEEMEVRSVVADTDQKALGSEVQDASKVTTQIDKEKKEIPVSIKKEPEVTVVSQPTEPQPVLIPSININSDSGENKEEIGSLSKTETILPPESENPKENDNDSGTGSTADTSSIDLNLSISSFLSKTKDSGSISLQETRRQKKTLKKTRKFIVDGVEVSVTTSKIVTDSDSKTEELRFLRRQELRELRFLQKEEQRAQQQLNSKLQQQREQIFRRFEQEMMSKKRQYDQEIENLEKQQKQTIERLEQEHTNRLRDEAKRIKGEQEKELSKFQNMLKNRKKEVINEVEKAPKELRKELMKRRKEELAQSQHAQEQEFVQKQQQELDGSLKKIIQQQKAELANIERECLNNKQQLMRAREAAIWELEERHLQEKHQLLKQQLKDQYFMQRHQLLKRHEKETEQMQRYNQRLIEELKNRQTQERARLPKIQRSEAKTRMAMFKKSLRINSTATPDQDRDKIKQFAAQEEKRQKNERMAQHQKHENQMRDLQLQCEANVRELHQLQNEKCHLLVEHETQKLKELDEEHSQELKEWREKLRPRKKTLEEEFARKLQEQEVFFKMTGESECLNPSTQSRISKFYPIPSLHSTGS

For the compound `Cc1ccc(-n2nc(C(C)(C)C)cc2NC(=O)Nc2cccc(-c3c[nH]c4ncnc(N5CCOCC5)c34)c2)cc1` [Compound 29], the dTm was 0.14 K in assay [1]; -0.19 K in assay [2]; 2.95 K in assay [3]; 0.69 K in assay [4]; 2.68 K in assay [5]; 4.49 K in assay [6]. Also, the values for the dTm in assay [7] (setting [9]) and in assay [8] were 13.65 K and 9.24 K, respectively.

For `Cc1ccc(-n2nc(C(C)(C)C)cc2NC(=O)Nc2cccc(-c3c[nH]c4nc(Cl)nc(N5CCOCC5)c34)c2)cc1` [Compound 30], the dTm in assay [1] was -0.47 K; in assay [2], -0.31 K; in assay [3], -0.48 K; in assay [4] it was 0.59 K; in assay [5] it was 0.22 K; in assay [6], 1.60 K. Further, the values for the dTm in assay [7] (setting [9]) and in assay [8] were 8.39 K and 1.85 K, respectively.

As for `CC(=O)N1CCN(c2nc(Cl)nc3[nH]cc(-c4cccc(NC(=O)Nc5cc(C(C)(C)C)nn5-c5ccc(C)cc5)c4)c23)CC1` [Compound 31], the dTm in assay [1] was -2.83 K; in assay [2] it was -0.09 K; in assay [3], -0.26 K; in assay [4], 0.26 K; in assay [5], 0.34 K; in assay [6], 1.23 K. Also, the dTm in assay [7] (setting [9]) worked out at 9.23 K; in assay [8], 2.23 K.

Take `CCSc1nc(NC)c2c(-c3cccc(NC(=O)Nc4cc(C(C)(C)C)nn4-c4ccc(C)cc4)c3)c[nH]c2n1` [Compound 32]: the dTm in assay [1] is on record as -0.26 K; in assay [2], -0.15 K; in assay [3], 0.16 K; in assay [4], 0.23 K; in assay [5], 0.38 K; in assay [6], 0.73 K. Also, the dTm in assay [7] (setting [9]) amounted to 5.13 K; in assay [8] it was 0.31 K.

`COc1cc(C(=O)N2CCOCC2)c(F)cc1Nc1nc(N(C)C)c2c(Cl)c[nH]c2n1` [Compound 36]: the dTm in assay [1] is recorded as -0.72 K; in assay [2] it was -0.36 K; in assay [3], -1.24 K; in assay [4], 2.03 K; in assay [5], 2.27 K; in assay [6] it was 6.66 K. In addition, the figures for the dTm in assay [7] (setting [9]) and in assay [8] were -1.49 K and 0.93 K, respectively.

As for `COc1cc(S(C)(=O)=O)ccc1Nc1nc(N(C)C)c2c(Cl)c[nH]c2n1` [Compound 37], the dTm is on record as -0.21 K in assay [1]; -0.14 K in assay [2]; 0.75 K in assay [3]; 0.51 K in assay [4]; 0.12 K in assay [5]; 1.09 K in assay [6]. Further, the dTm in assay [7] (setting [9]) was -0.88 K; in assay [8], 0.11 K.

As to `COc1cc2c(Oc3ccc(NC(=O)C4(C(=O)Nc5ccc(F)cc5)CC4)cc3F)ccnc2cc1OCCCN1CCOCC1` [Foretinib, reference compound], the dTm in assay [1] is given as 0.53 K; in assay [2], 7.20 K; in assay [3], 3.96 K; in assay [4], 0.00 K; in assay [5], -0.16 K; in assay [6] it was 2.33 K. In addition, the dTm was 8.07 K in assay [7] (setting [9]) and 4.61 K in assay [8].

Take `CCNc1nc(Nc2cc(F)c(C(=O)N3CCOCC3)cc2OC)ncc1C(F)(F)F` [GNE-7915]: the dTm in assay [1] was 0.33 K; in assay [2], 0.49 K; in assay [3], 0.65 K; in assay [4] it was 1.87 K; in assay [5] it was -0.20 K; in assay [6] it was 3.14 K. The dTm is given as 0.62 K in assay [7] (setting [9]) and 0.82 K in assay [8].

In the case of `Cc1ccc(C(=O)Nc2ccc(CN3CCN(C)CC3)c(C(F)(F)F)c2)cc1C#Cc1cnc2[nH]ncc2c1` [GZD-824, reference compound], the dTm is listed as -2.40 K in assay [1]; 13.32 K in assay [2]; 3.47 K in assay [3]; -1.14 K in assay [4]; 1.51 K in assay [5]; 5.05 K in assay [6]. In addition, the dTm was 15.82 K in assay [7] and 1.22 K in assay [8].

Turning to `C[C@@H]1CN(c2cc(-c3n[nH]c4ccc(OC5(C)CC5)cc34)ncn2)C[C@H](C)O1` [MLi2], the dTm in assay [1] is given as 0.19 K; in assay [2], -0.06 K; in assay [3], -1.07 K; in assay [4] it was 0.17 K; in assay [5] it was 0.12 K; in assay [6], 3.65 K. Moreover, the dTm in assay [7] (setting [9]) is reported as -1.23 K; in assay [8] it was 0.22 K.

For the compound `Cn1cc(-c2c[nH]c3ncnc(N4CCOCC4)c23)cc1C#N` [PFE-360], the dTm in assay [1] is listed as 0.12 K; in assay [2] it was 0.89 K; in assay [3] it was 2.70 K; in assay [4] it was 0.25 K; in assay [5], -0.34 K; in assay [6] it was 15.45 K. In addition, the dTm amounted to 3.08 K in assay [7] (setting [9]) and 0.25 K in assay [8].
